Common to all, as to type: functional, cell-based
Test [1] relates to CRO-AP2. In words: SANGER: Inhibition of human CRO-AP2 cell growth in a cell viability assay.
Test [2] concerns ECC12. Briefly: cells. The settings on record: Homo sapiens.
Description: SANGER: Inhibition of human ECC12 cell growth in a cell viability assay.
Test [3] deals with EW-12. In words: SANGER: Inhibition of human EW-12 cell growth in a cell viability assay.
Test [4] deals with NCI-H128. Briefly: SANGER: Inhibition of human NCI-H128 cell growth in a cell viability assay.
Test [5] deals with NCI-H2227. Briefly: cells. Conditions: Homo sapiens.
Description: SANGER: Inhibition of human NCI-H2227 cell growth in a cell viability assay.
For test [6], the system named is SKM-1. In words: SANGER: Inhibition of human SKM-1 cell growth in a cell viability assay.
Test [7] relates to NCI-H2107. Briefly: SANGER: Inhibition of human NCI-H2107 cell growth in a cell viability assay.
Test [8] relates to CP67-MEL. Briefly: SANGER: Inhibition of human CP67-MEL cell growth in a cell viability assay.
In test [9] the test system is KP-N-RT-BM-1. Briefly: SANGER: Inhibition of human KP-N-RT-BM-1 cell growth in a cell viability assay.
Test [10] concerns D-423MG. Briefly: cells. Conditions: Homo sapiens.
Description: SANGER: Inhibition of human D-423MG cell growth in a cell viability assay.
The test system of test [11] is D-566MG. Briefly: cells. The settings on record: Homo sapiens.
The test system of test [12] is ECC10. Briefly: cells. Conditions: Homo sapiens.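 Also: growth inhibition of ECC10 cells, read out by a cell viability assay.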
Description: SANGER: Inhibition of human ECC10 cell growth in a cell viability assay.
Test [13] has as its system EPLC-272H. Briefly: cells. Conditions: Homo sapiens.
Description: SANGER: Inhibition of human EPLC-272H cell growth in a cell viability assay.
In test [14] the test system is H-EMC-SS. Briefly: cells. The settings on record: Homo sapiens.
Description: SANGER: Inhibition of human H-EMC-SS cell growth in a cell viability assay.
Test [15] has as its system H9. In words: cells. The settings on record: Homo sapiens.
Description: SANGER: Inhibition of human H9 cell growth in a cell viability assay.
For test [16], the system named is KNS-62. In words: cells. The settings on record: Homo sapiens.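 Also: inhibition of cell growth, read out with a cell viability assay.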
Description: SANGER: Inhibition of human KNS-62 cell growth in a cell viability assay.
In test [17] the test system is NBsusSR. In words: cells. The settings on record: Homo sapiens.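 Also: growth inhibition of the human cell line, read out with a cell viability assay.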
Description: SANGER: Inhibition of human NBsusSR cell growth in a cell viability assay.
For test [18], the system named is NCI-H1048. In words: cells. The settings on record: Homo sapiens.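 Also: growth inhibition of human NCI-H1048 cells, read out with a cell viability assay.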
Description: SANGER: Inhibition of human NCI-H1048 cell growth in a cell viability assay.
Test [19] relates to NCI-H1666. Briefly: cells. Conditions: Homo sapiens.
Description: SANGER: Inhibition of human NCI-H1666 cell growth in a cell viability assay.
Test [20] concerns NCI-H1975. Briefly: cells. Conditions: Homo sapiens.
Description: SANGER: Inhibition of human NCI-H1975 cell growth in a cell viability assay.
For test [21], the system named is NCI-H2029. Briefly: cells. The settings on record: Homo sapiens.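 Also: Read-out is a viability assay on the cultured cells, and IC50 is the concentration that suppresses cell growth.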
Description: SANGER: Inhibition of human NCI-H2029 cell growth in a cell viability assay.
The test system of test [22] is OC-314. Briefly: cells. The settings on record: Homo sapiens.
Description: SANGER: Inhibition of human OC-314 cell growth in a cell viability assay.
Test [23] has as its system RH-18. Briefly: cells. Conditions: Homo sapiens, Rh18.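 Also: growth inhibition of human RH-18 cells, read out with a cell viability assay.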
Description: SANGER: Inhibition of human RH-18 cell growth in a cell viability assay.
In test [24] the test system is SW 1116. In words: cells. The settings on record: Homo sapiens.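 Also: growth inhibition of SW1116 cells, read out with a cell viability assay.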
Description: SANGER: Inhibition of human SW1116 cell growth in a cell viability assay.
Test [25] deals with SW900. Briefly: cells. The settings on record: Homo sapiens.
Description: SANGER: Inhibition of human SW900 cell growth in a cell viability assay.
In test [26] the test system is A549. Briefly: cells. The settings on record: Homo sapiens.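 Also: growth inhibition of A549 cells, read out with a cell viability assay.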
Description: SANGER: Inhibition of human A549 cell growth in a cell viability assay.
The test system of test [27] is BALL-1. In words: cells. The settings on record: Homo sapiens.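 Also: growth inhibition of BALL-1 cells, read out with a cell viability assay.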
Description: SANGER: Inhibition of human BALL-1 cell growth in a cell viability assay.
Test [28] relates to TGBC11TKB. Briefly: cells. Conditions: Homo sapiens.
Description: SANGER: Inhibition of human TGBC11TKB cell growth in a cell viability assay.
Test [29] has as its system TI-73. Briefly: cells. The settings on record: Homo sapiens.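 Also: cell viability assay measuring how much compounds suppress growth of the cultured cell line.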
Description: SANGER: Inhibition of human TI-73 cell growth in a cell viability assay.
For test [30], the system named is YH-13. In words: cells. The settings on record: Homo sapiens.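 Also: cell viability readout of growth suppression in the human YH-13 cell line.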
Description: SANGER: Inhibition of human YH-13 cell growth in a cell viability assay.
The test system of test [31] is ZR-75-30. In words: cells. Conditions: Homo sapiens.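 Also: growth inhibition of ZR-75-30 cells, measured with a cell viability readout.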
Description: SANGER: Inhibition of human ZR-75-30 cell growth in a cell viability assay.
Test [32] concerns CFPAC-1. Briefly: cells. Conditions: Homo sapiens.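 Also: cell viability readout used to gauge suppression of CFPAC-1 cell proliferation.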
Description: SANGER: Inhibition of human CFPAC-1 cell growth in a cell viability assay.

For `Cc1ccc(NC(=O)c2cccc(C(C)(C)C#N)c2)cc1Nc1ccc2ncn(C)c(=O)c2c1`, the IC50 (commonly the concentration that gives 50% inhibition) in [1] was more than 4000 nM; in test [2], 1710 nM; in test [3], more than 4000 nM; in test [4], more than 4000 nM; in [5], more than 4000 nM; in [6] it was more than 4000 nM.
For `CCn1c(-c2nonc2N)nc2cnc(Oc3cccc(NC(=O)c4ccc(OCCN5CCOCC5)cc4)c3)cc21` [GSK-269962A], the half-inhibitory concentration (IC50) is 2360 nM in test [1]; more than 2500 nM in [2]; more than 2500 nM in test [3]; more than 2500 nM in test [4]; more than 2500 nM in test [7]; more than 2500 nM in [5]. In test [6], this compound registered an IC50 of more than 2500 nM.
Regarding `Cc1[nH]c(/C=C2\C(=O)Nc3ccc(S(=O)(=O)Cc4c(Cl)cccc4Cl)cc32)c(C)c1C(=O)N1CCC[C@@H]1CN1CCCC1` [PHA-665752], the IC50 in test [8], in [1], in [3], in test [9], in test [4] and in test [6] was more than 2000 nM in each case.
Regarding `CC[C@]1(O)C[C@@H]2CN(CCc3c([nH]c4ccccc34)[C@@](C(=O)OC)(c3cc4c(cc3OC)N(C)[C@H]3[C@@](O)(C(=O)OC)[C@H](OC(C)=O)[C@]5(CC)C=CCN6CC[C@]43[C@@H]65)C2)C1` [VINBLASTINE], the half-maximal inhibitory concentration (IC50) in test [10] was 8.64 nM; in test [11] it was 2.04 nM; in [12], 21.2 nM; in [13], 10.8 nM; in test [14], more than 100 nM; in [15] it was 2.25 nM. The IC50 in test [16] is 5.8 nM; in test [17] it was 3.23 nM; in test [18], 10.1 nM; in [19] it was 20.1 nM; in test [20] it was 24.2 nM; in [21], more than 100 nM. Further, the IC50 was 2.22 nM in [22]; more than 100 nM in [23]; more than 100 nM in test [24]; 25.4 nM in [25]; 4.95 nM in [26]; more than 100 nM in test [27]. Besides, the IC50 was 15.8 nM in [28]; 3.21 nM in test [29]; 3.7 nM in test [30]; more than 100 nM in [31]; 93.2 nM in test [32].

Values taken from ChEMBL document CHEMBL1201861, “Genomics of Drug Sensitity in Cancer screening data, Wellcome Trust Sanger Institute”.
